The results in this text go back to ChEMBL document CHEMBL6078671, “Synthesis of aromatic glycoconjugates as anti-fungal agents against Candida spp. and assessment of their covalent crosslinking capabilities” (2025).

By MFC is commonly meant the lowest tested concentration that kills the fungus rather than only halting it. A low value points to greater fungicidal potency.

≈ marks a conversion by molar mass, not a printed value. Bounds are passed on as bounds.

One test deals with Nakaseomyces glabratus. As to the kind of experiment: Fungicidal activity against Candida glabrata ATCC 90030 incubated for 24 hrs followed by replacement of medium without compound measured after 48 hrs. The class given is functional.
Conditions: not given
Compound `C=CC(=O)Nc1cc(C(=O)NCc2cn([C@H]3O[C@H](CO)[C@@H](O)[C@H](O)[C@@H]3O)nn2)cc(C(=O)NCc2cn([C@H]3O[C@H](CO)[C@@H](O)[C@H](O)[C@@H]3O)nn2)c1` showed an MFC greater than 10000 µg/mL.
On the same count and under the same terms, for `C=CC(=O)Nc1cc(C(=O)NCc2cn([C@H]3O[C@@H](C)[C@@H](O)[C@@H](O)[C@@H]3O)nn2)cc(C(=O)NCc2cn([C@H]3O[C@@H](C)[C@@H](O)[C@H](O)[C@@H]3O)nn2)c1` the value was greater than 10000 µg/mL; for `C=CS(=O)(=O)Nc1cc(C(=O)NCc2cn([C@@H]3O[C@H](CO)[C@H](O)[C@H](O)[C@H]3O)nn2)cc(C(=O)NCc2cn([C@@H]3O[C@H](CO)[C@H](O)[C@@H](O)[C@@H]3O)nn2)c1`, 10000 µg/mL (≈ 13.2 mM).
The same measure, in the same setting: for `C=CS(=O)(=O)Nc1cc(C(=O)NCc2cn([C@H]3O[C@@H](C)[C@@H](O)[C@@H](O)[C@@H]3O)nn2)cc(C(=O)NCc2cn([C@H]3O[C@@H](C)[C@@H](O)[C@H](O)[C@@H]3O)nn2)c1` the value was greater than 10000 µg/mL.
The same measure, in the same setting: for `CCC(=O)Nc1cc(C(=O)NCc2cn([C@@H]3O[C@H](CO)[C@H](O)[C@H](O)[C@H]3O)nn2)cc(C(=O)NCc2cn([C@@H]3O[C@H](CO)[C@H](O)[C@@H](O)[C@@H]3O)nn2)c1` the value was 10000 µg/mL (≈ 13.9 mM).

For the next test, the system named is Clavispora lusitaniae. As to the kind of experiment: Fungicidal activity against Candida lusitaniae C18 incubated for 24 hrs followed by replacement of medium without compound measured after 48 hrs. The test is classed as functional.
Conditions: not given
Consider `C=CC(=O)Nc1cc(C(=O)NCc2cn([C@H]3O[C@H](CO)[C@@H](O)[C@H](O)[C@@H]3O)nn2)cc(C(=O)NCc2cn([C@H]3O[C@H](CO)[C@@H](O)[C@H](O)[C@@H]3O)nn2)c1`, for which the MFC was greater than 10000 µg/mL.
Same read-out and setting: under `C=CC(=O)Nc1cc(C(=O)NCc2cn([C@H]3O[C@@H](C)[C@@H](O)[C@@H](O)[C@@H]3O)nn2)cc(C(=O)NCc2cn([C@H]3O[C@@H](C)[C@@H](O)[C@H](O)[C@@H]3O)nn2)c1` stands greater than 10000 µg/mL; under `C=CS(=O)(=O)Nc1cc(C(=O)NCc2cn([C@@H]3O[C@H](CO)[C@H](O)[C@H](O)[C@H]3O)nn2)cc(C(=O)NCc2cn([C@@H]3O[C@H](CO)[C@H](O)[C@@H](O)[C@@H]3O)nn2)c1`, greater than 10000 µg/mL; under `C=CS(=O)(=O)Nc1cc(C(=O)NCc2cn([C@H]3O[C@@H](C)[C@@H](O)[C@@H](O)[C@@H]3O)nn2)cc(C(=O)NCc2cn([C@H]3O[C@@H](C)[C@@H](O)[C@H](O)[C@@H]3O)nn2)c1`, greater than 10000 µg/mL.

The next test relates to Candida parapsilosis. Briefly: Fungicidal activity against Candida parapsilosis ATCC 22019 incubated for 24 hrs followed by replacement of medium without compound measured after 48 hrs. The class given is functional. Conditions: Lodderomyces parapsilosis.
With `C=CC(=O)Nc1cc(C(=O)NCc2cn([C@H]3O[C@H](CO)[C@@H](O)[C@H](O)[C@@H]3O)nn2)cc(C(=O)NCc2cn([C@H]3O[C@H](CO)[C@@H](O)[C@H](O)[C@@H]3O)nn2)c1`, the MFC was greater than 10000 µg/mL.
On the same count and under the same terms, for `C=CC(=O)Nc1cc(C(=O)NCc2cn([C@H]3O[C@@H](C)[C@@H](O)[C@@H](O)[C@@H]3O)nn2)cc(C(=O)NCc2cn([C@H]3O[C@@H](C)[C@@H](O)[C@H](O)[C@@H]3O)nn2)c1` the value was greater than 10000 µg/mL; for `C=CS(=O)(=O)Nc1cc(C(=O)NCc2cn([C@@H]3O[C@H](CO)[C@H](O)[C@H](O)[C@H]3O)nn2)cc(C(=O)NCc2cn([C@@H]3O[C@H](CO)[C@H](O)[C@@H](O)[C@@H]3O)nn2)c1`, greater than 10000 µg/mL; for `C=CS(=O)(=O)Nc1cc(C(=O)NCc2cn([C@H]3O[C@@H](C)[C@@H](O)[C@@H](O)[C@@H]3O)nn2)cc(C(=O)NCc2cn([C@H]3O[C@@H](C)[C@@H](O)[C@H](O)[C@@H]3O)nn2)c1`, greater than 10000 µg/mL.

The subject of another test is Candida albicans. Briefly: Fungicidal activity against Candida albicans ATCC 10231 incubated for 24 hrs followed by replacement of medium without compound measured after 48 hrs. The class given is functional.
Conditions: not given
Consider `C=CC(=O)Nc1cc(C(=O)NCc2cn([C@H]3O[C@H](CO)[C@@H](O)[C@H](O)[C@@H]3O)nn2)cc(C(=O)NCc2cn([C@H]3O[C@H](CO)[C@@H](O)[C@H](O)[C@@H]3O)nn2)c1`, for which the MFC is greater than 10000 µg/mL.
The same measure, in the same setting: under `C=CC(=O)Nc1cc(C(=O)NCc2cn([C@H]3O[C@@H](C)[C@@H](O)[C@@H](O)[C@@H]3O)nn2)cc(C(=O)NCc2cn([C@H]3O[C@@H](C)[C@@H](O)[C@H](O)[C@@H]3O)nn2)c1` stands greater than 10000 µg/mL; under `C=CS(=O)(=O)Nc1cc(C(=O)NCc2cn([C@@H]3O[C@H](CO)[C@H](O)[C@H](O)[C@H]3O)nn2)cc(C(=O)NCc2cn([C@@H]3O[C@H](CO)[C@H](O)[C@@H](O)[C@@H]3O)nn2)c1`, greater than 10000 µg/mL.
The same measure, in the same setting: under `C=CS(=O)(=O)Nc1cc(C(=O)NCc2cn([C@H]3O[C@@H](C)[C@@H](O)[C@@H](O)[C@@H]3O)nn2)cc(C(=O)NCc2cn([C@H]3O[C@@H](C)[C@@H](O)[C@H](O)[C@@H]3O)nn2)c1` stands greater than 10000 µg/mL.

The next test concerns [Candida] auris. Briefly: Fungicidal activity against Candida auris ATCC CMYA-5001 incubated for 24 hrs followed by replacement of medium without compound measured after 48 hrs. Conditions: Candidozyma auris. The class given is functional.
`C=CC(=O)Nc1cc(C(=O)NCc2cn([C@H]3O[C@@H](C)[C@@H](O)[C@@H](O)[C@@H]3O)nn2)cc(C(=O)NCc2cn([C@H]3O[C@@H](C)[C@@H](O)[C@H](O)[C@@H]3O)nn2)c1` returned an MFC greater than 10000 µg/mL.
`C=CS(=O)(=O)Nc1cc(C(=O)NCc2cn([C@@H]3O[C@H](CO)[C@H](O)[C@H](O)[C@H]3O)nn2)cc(C(=O)NCc2cn([C@@H]3O[C@H](CO)[C@H](O)[C@@H](O)[C@@H]3O)nn2)c1`: the MFC was 10000 µg/mL (≈ 13.2 mM).
In turn, `C=CS(=O)(=O)Nc1cc(C(=O)NCc2cn([C@H]3O[C@@H](C)[C@@H](O)[C@@H](O)[C@@H]3O)nn2)cc(C(=O)NCc2cn([C@H]3O[C@@H](C)[C@@H](O)[C@H](O)[C@@H]3O)nn2)c1` showed an MFC greater than 10000 µg/mL.

The next test concerns Meyerozyma guilliermondii. As to the kind of experiment: Fungicidal activity against Candida guilliermondii C94 incubated for 24 hrs followed by replacement of medium without compound measured after 48 hrs.
Conditions: not given
The test is classed as functional.
On to `C=CC(=O)Nc1cc(C(=O)NCc2cn([C@H]3O[C@H](CO)[C@@H](O)[C@H](O)[C@@H]3O)nn2)cc(C(=O)NCc2cn([C@H]3O[C@H](CO)[C@@H](O)[C@H](O)[C@@H]3O)nn2)c1`, for which the MFC is greater than 10000 µg/mL.
Same read-out and setting: for `C=CC(=O)Nc1cc(C(=O)NCc2cn([C@H]3O[C@@H](C)[C@@H](O)[C@@H](O)[C@@H]3O)nn2)cc(C(=O)NCc2cn([C@H]3O[C@@H](C)[C@@H](O)[C@H](O)[C@@H]3O)nn2)c1` the value was greater than 10000 µg/mL; for `C=CS(=O)(=O)Nc1cc(C(=O)NCc2cn([C@@H]3O[C@H](CO)[C@H](O)[C@H](O)[C@H]3O)nn2)cc(C(=O)NCc2cn([C@@H]3O[C@H](CO)[C@H](O)[C@@H](O)[C@@H]3O)nn2)c1`, 10000 µg/mL (≈ 13.2 mM); for `C=CS(=O)(=O)Nc1cc(C(=O)NCc2cn([C@H]3O[C@@H](C)[C@@H](O)[C@@H](O)[C@@H]3O)nn2)cc(C(=O)NCc2cn([C@H]3O[C@@H](C)[C@@H](O)[C@H](O)[C@@H]3O)nn2)c1`, greater than 10000 µg/mL.
Regarding `CCC(=O)Nc1cc(C(=O)NCc2cn([C@@H]3O[C@H](CO)[C@H](O)[C@H](O)[C@H]3O)nn2)cc(C(=O)NCc2cn([C@@H]3O[C@H](CO)[C@H](O)[C@@H](O)[C@@H]3O)nn2)c1`, the MFC is 10000 µg/mL (≈ 13.9 mM).
